Experimental data: the supplement of paper PMC6045584
± gives the standard deviation of the averaged measurements.

Experiments:
[1] = compound: CC(=O)NCC(=O)N1[C@@H]2CC[C@H]1c1ccc(Nc3ncc(C(F)(F)F)c(NC4CCC4)n3)cc12; assay: surviving fraction relative to DMSO-only wells; higher = less growth inhibition; conditions: exposure time: 5 days
Outline: (§1)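 Viability values are CellTiter-Glo luminescence readings, given as surviving fraction against the median of DMSO-only wells. The readings were taken after 10 minutes at room temperature, following five days of continuous exposure to inhibitors at 0.5, 1, 5, 10, 50, 100, 500 and 1000 nM that began 24 hours after log-phase tumour cell lines were seeded at 250–500 cells per well in 384-well plates. Every line was screened three times and kept only if replicate Pearson r >0.7 and median Z' >0.3.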

[2] = compound: T1, CC(=O)O[C@H]1C(=O)[C@@]2(C)[C@H]([C@H](OC(=O)c3ccccc3)[C@]3(O)C[C@H](OC(=O)[C@H](O)[C@@H](NC(=O)c4ccccc4)c4ccccc4)C(C)=C1C3(C)C)[C@]1(OC(C)=O)CO[C@@H]1C[C@@H]2O [PACLITAXEL]; assay: as above; conditions: exposure time: 5 days
Outline: as §1

[3] = compound: CC(=O)c1c(C)c2cnc(Nc3ccc(N4CCNCC4)cn3)nc2n(C2CCCC2)c1=O; assay: as above; conditions: exposure time: 5 days
Outline: as §1

[4] = compound: CC[C@@]1(O)C(=O)OCc2c1cc1n(c2=O)Cc2cc3ccccc3nc2-1 [CAMPTOTHECIN]; assay: as above; conditions: exposure time: 5 days
Outline: as §1

[5] = compound: COCC[n+]1c2c(n(Cc3cnccn3)c1C)C(=O)c1ccccc1C2=O [YM155]; assay: as above; conditions: exposure time: 5 days
Outline: as §1

[6] = compound: COc1cc2ncnc(Nc3ccc(F)c(Cl)c3)c2cc1OCCCN1CCOCC1 [GEFITINIB]; assay: as above; conditions: exposure time: 5 days
Outline: as §1

[7] = compound: C[C@]1(O)C[C@@H](c2nc(-c3ccc4ccc(-c5ccccc5)nc4c3)c3c(N)nccn32)C1 [OSI-906]; assay: as above; conditions: exposure time: 5 days
Outline: as §1

[8] = compound: Cc1ccc(-c2cc(C(F)(F)F)nn2-c2ccc(S(N)(=O)=O)cc2)cc1 [CELECOXIB]; assay: as above; conditions: exposure time: 5 days
Outline: as §1

[9] = compound: O=C(O)C1(C(=O)O)CCC1.[NH2-].[NH2-].[Pt+2] [CARBOPLATIN]; assay: as above; conditions: exposure time: 5 days
Outline: as §1

[10] = compound: CC(=O)NCC(=O)N1[C@@H]2CC[C@H]1c1ccc(Nc3ncc(C(F)(F)F)c(NC4CCC4)n3)cc12; assay: area under dose-response curve of surviving fraction (unscaled, Aref=0) (surviving fraction x log10(nM)); higher = more resistant; conditions: exposure time: 5 days; dose range 0.5-1000 nM
Outline: (§2)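 Tumour cell lines in 384-well plates were exposed for five days to eight inhibitor concentrations from 0.5 to 1000 nM. Viability was read by CellTiter-Glo luminescence, normalised to DMSO-only wells, in three screens per line. Dose-response survival curves were fitted to surviving fractions by 3-parameter logistic regression in the drc R package. Area under the curve is the unscaled activity area (Aref = 0) over log10 dose.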

[11] = compound: T1, PACLITAXEL; assay: as above; conditions: exposure time: 5 days; dose range 0.5-1000 nM
Outline: as §2

[12] = compound: CC(=O)c1c(C)c2cnc(Nc3ccc(N4CCNCC4)cn3)nc2n(C2CCCC2)c1=O; assay: as above; conditions: exposure time: 5 days; dose range 0.5-1000 nM
Outline: as §2

Q: Which surviving fraction ([1]; 0.5 nM) does the source give for HCC202 BREAST here?
A: 1.54 ± 0.18

Q: And the surviving fraction ([1]; 1 nM)?
A: 1.09 ± 0.18

Q: What about the surviving fraction ([1]; 5 nM) of the same test system?
A: 1.44 ± 0.13

Q: And the surviving fraction ([1]; 10 nM)?
A: 1.5 ± 0.21

Q: What about the surviving fraction ([1]; 50 nM) of the same test system?
A: 1.46 ± 0.16

Q: What about the surviving fraction ([1]; 100 nM) of the same test system?
A: 1.32 ± 0.4

Q: And the surviving fraction ([1]; 500 nM)?
A: 1.32 ± 0.15

Q: What about the surviving fraction ([1]; 1000 nM) of the same test system?
A: 1.08 ± 0.26

Q: What about the surviving fraction ([2]; 0.5 nM) of the same test system?
A: 1.15 ± 0.51

Q: What about the surviving fraction ([2]; 1 nM) of the same test system?
A: 0.655 ± 0.15

Q: And the surviving fraction ([2]; 5 nM)?
A: 0.377 ± 0.091

Q: And the surviving fraction ([2]; 10 nM)?
A: 0.364 ± 0.12

Q: And the surviving fraction ([2]; 50 nM)?
A: 0.362 ± 0.027

Q: What about the surviving fraction ([2]; 100 nM) of the same test system?
A: 0.362 ± 0.047

Q: And the surviving fraction ([2]; 500 nM)?
A: 0.352 ± 0.032

Q: And the surviving fraction ([2]; 1000 nM)?
A: 0.327 ± 0.098

Q: What about the surviving fraction ([3]; 0.5 nM) of the same test system?
A: 0.959 ± 0.31

Q: And the surviving fraction ([3]; 1 nM)?
A: 0.859 ± 0.088

Q: What about the surviving fraction ([3]; 5 nM) of the same test system?
A: 1.01 ± 0.094

Q: And the surviving fraction ([3]; 10 nM)?
A: 0.874 ± 0.16

Q: And the surviving fraction ([3]; 50 nM)?
A: 0.863 ± 0.17

Q: What about the surviving fraction ([3]; 100 nM) of the same test system?
A: 1 ± 0.25

Q: And the surviving fraction ([3]; 500 nM)?
A: 1.19 ± 0.15

Q: And the surviving fraction ([3]; 1000 nM)?
A: 0.982 ± 0.22

Q: What about the surviving fraction ([4]; 0.5 nM) of the same test system?
A: 1.05 ± 0.027

Q: What about the surviving fraction ([4]; 1 nM) of the same test system?
A: 0.866 ± 0.17

Q: And the surviving fraction ([4]; 5 nM)?
A: 0.734 ± 0.082

Q: What about the surviving fraction ([4]; 10 nM) of the same test system?
A: 0.691 ± 0.24

Q: What about the surviving fraction ([4]; 50 nM) of the same test system?
A: 0.78 ± 0.14

Q: And the surviving fraction ([4]; 100 nM)?
A: 0.767 ± 0.1

Q: What about the surviving fraction ([4]; 500 nM) of the same test system?
A: 0.478 ± 0.0071

Q: And the surviving fraction ([4]; 1000 nM)?
A: 0.357 ± 0.0042

Q: What about the surviving fraction ([5]; 0.5 nM) of the same test system?
A: 1.19 ± 0.025

Q: And the surviving fraction ([5]; 1 nM)?
A: 1.13 ± 0.014

Q: What about the surviving fraction ([5]; 5 nM) of the same test system?
A: 1.34 ± 0.26

Q: What about the surviving fraction ([5]; 10 nM) of the same test system?
A: 1.31 ± 0.22

Q: And the surviving fraction ([5]; 50 nM)?
A: 0.411 ± 0.17

Q: What about the surviving fraction ([5]; 100 nM) of the same test system?
A: 0.231 ± 0.037

Q: What about the surviving fraction ([5]; 500 nM) of the same test system?
A: 0.0315 ± 0.00071

Q: What about the surviving fraction ([5]; 1000 nM) of the same test system?
A: 0.0335 ± 0.0021

Q: And the surviving fraction ([6]; 0.5 nM)?
A: 1.4 ± 0.62

Q: What about the surviving fraction ([6]; 1 nM) of the same test system?
A: 1.2 ± 0.23

Q: And the surviving fraction ([6]; 5 nM)?
A: 1.35 ± 0.21

Q: And the surviving fraction ([6]; 10 nM)?
A: 1.06 ± 0.14

Q: What about the surviving fraction ([6]; 50 nM) of the same test system?
A: 1.32 ± 0.14

Q: And the surviving fraction ([6]; 100 nM)?
A: 1.11 ± 0.37

Q: And the surviving fraction ([6]; 500 nM)?
A: 0.542 ± 0.13

Q: What about the surviving fraction ([6]; 1000 nM) of the same test system?
A: 0.345 ± 0.013

Q: And the surviving fraction ([7]; 0.5 nM)?
A: 0.918 ± 0.1

Q: What about the surviving fraction ([7]; 1 nM) of the same test system?
A: 0.867 ± 0.2

Q: What about the surviving fraction ([7]; 5 nM) of the same test system?
A: 0.966 ± 0.052

Q: What about the surviving fraction ([7]; 10 nM) of the same test system?
A: 0.8315 ± 0.0035

Q: What about the surviving fraction ([7]; 50 nM) of the same test system?
A: 1.1 ± 0.021

Q: What about the surviving fraction ([7]; 100 nM) of the same test system?
A: 1.07 ± 0.15

Q: What about the surviving fraction ([7]; 500 nM) of the same test system?
A: 0.862 ± 0.18

Q: What about the surviving fraction ([7]; 1000 nM) of the same test system?
A: 0.839 ± 0.18

Q: And the surviving fraction ([8]; 0.5 nM)?
A: 1.15 ± 0.041

Q: What about the surviving fraction ([8]; 1 nM) of the same test system?
A: 1.14 ± 0.04

Q: What about the surviving fraction ([8]; 5 nM) of the same test system?
A: 1.2 ± 0.33

Q: And the surviving fraction ([8]; 10 nM)?
A: 1.04 ± 0.09

Q: And the surviving fraction ([8]; 50 nM)?
A: 1.06 ± 0.27

Q: What about the surviving fraction ([8]; 100 nM) of the same test system?
A: 1.13 ± 0.18

Q: What about the surviving fraction ([8]; 500 nM) of the same test system?
A: 1.36 ± 0.39

Q: What about the surviving fraction ([8]; 1000 nM) of the same test system?
A: 1.12 ± 0.16

Q: What about the surviving fraction ([9]; 0.5 nM) of the same test system?
A: 1.19 ± 0.33

Q: And the surviving fraction ([9]; 1 nM)?
A: 1.05 ± 0.058

Q: What about the surviving fraction ([9]; 5 nM) of the same test system?
A: 1.31 ± 0.09

Q: What about the surviving fraction ([9]; 10 nM) of the same test system?
A: 1.07 ± 0.36

Q: And the surviving fraction ([9]; 50 nM)?
A: 1.02 ± 0.23

Q: And the surviving fraction ([9]; 100 nM)?
A: 1.14 ± 0.018

Q: And the surviving fraction ([9]; 500 nM)?
A: 1.27 ± 0.4

Q: And the surviving fraction ([9]; 1000 nM)?
A: 1.34 ± 0.34

Q: And the “area under dose-response curve” value [10]?
A: 4.5

Q: And the “area under dose-response curve” value [11]?
A: 1.37

Q: What about the “area under dose-response curve” value [12] of the same test system?
A: 3.11
